Reference: a melting point compilation (Tetko et al.; mined from patent text by program, amines drawn as free bases though some values may be those of a salt)

| SMILES | melting point [°C] |
| --- | --- |
| CCCCCCOc1cc(O)c(-c2nc(-c3ccc(C)cc3C)nc(-c3ccc(C)cc3C)n2)cc1C(C)(C)c1ccccc1 | 111 to 115 |
| O=[N+]([O-])c1ccc(Oc2ccc(Cl)cc2Cl)cc1Oc1ccc(Cl)cc1Cl | 91 to 93 |
| Cn1ccnc1Sc1ccc(Nc2c(C#N)cnc3cc(/C=C/CCN4CCCCC4)ccc23)cc1Cl | 205 to 210 |
| COc1cc(OC)c2cnnc(Cl)c2c1 | 167 |
| Cc1cccc(-n2c(-c3sc(Nc4ccc(Cl)cc4)nc3-c3ccccc3)nc3ccccc3c2=O)c1 | 233 to 235 |
| Cc1oc(-c2ccccc2)nc1COc1ccc(COc2nn(Cc3ccccc3)cc2CCC(=O)O)cc1 | 125 to 126 |
| C=C1C[C@@H]2C(=O)NC(=O)[C@@H]2C1 | 135 to 137 |
| Cn1c(O)nc2cc(Cn3ccnc3)ccc21 | 207 |
| CC(Oc1ccc(Cl)cc1Cl)c1nnc(N=C=O)s1 (configuration not stated) | 176 to 179 |
| ClC1=NC(Cl)(c2ccc(Cl)cc2)NC=N1 (configuration not stated) | 142 to 143 |
| CC(=O)Oc1c(C2CCN(CCCCNC(=O)c3ccc(-c4ccc(C#N)cc4)cc3)CC2)ccc2c1CCCC2 | 140 to 150 |
| C#CCN(Cc1ccc2nc(C)[nH]c(=O)c2c1)c1ccc(C(=O)NCC(OC(C)=O)c2ccccc2)cc1 (configuration not stated) | 203 to 205 |
| CCCN(CCC)C(=O)C(CO)Nc1nc(-c2ccccc2)nc(C)c1C (configuration not stated) | 132 to 133 |
| Clc1cccc(Cl)c1C1=NC2(CO1)COC(c1ccccc1)OC2 (configuration not stated) | 158 to 160 |
| COc1cc(Nc2c(C#N)cnc3cc(-c4csc(C=O)c4)sc23)c(Cl)cc1Cl | 259 to 261 |
| COc1cc(Nc2c(C#N)cnc3sc(CCCCO)cc23)cc(OC)c1OC | 125 to 127 |
| COc1cc(CNc2n[nH]c3ncnc(Nc4cccc(Cl)c4)c23)cc(OC)c1 | 208 to 209 |
| CCCc1c(CO)ncn1S(=O)(=O)N(C)C | 86 to 88 |
| CC(C)C[C@H](NC(=O)c1c(F)cccc1F)C(=O)N[C@@H](C(C)C)[C@@H](O)c1c(-c2ccccc2)c1=O | 111 to 122 |
| CCCNC(=O)N1N=C(c2ccc(N)cc2)c2cc(Cl)ccc2CC1C (configuration not stated) | 88 to 90 |
| N#Cc1cnc2cc(-c3ccc(CN4CCOCC4)cc3)sc2c1Nc1ccc(Oc2ccccc2)cc1 | 254 to 256 |
| O=C(O)C1=Cc2cc(Cl)c(Oc3cccc(Cl)n3)cc2OC1C(F)(F)F (configuration not stated) | 226 to 227 |
| O=C(N[C@H](Cc1ccc(C(F)(F)F)cc1)[C@@H](O)c1cccc(F)c1)c1cccc2c1C=CCCC2 (racemic) | 151 to 152 |
| CNC(=O)n1cnc(C)c1Cl | 94.1 to 94.4 |
| C#Cc1cnn2c(C(F)(F)F)cc(-c3ccc(Cl)cc3)nc12 | 102 to 103 |
| COc1ccc(C(c2ccc(N(C)C)cc2)c2ccc(N(C)C)cc2C(=O)O)cc1 (configuration not stated) | 185 to 190 |

Results, then the compound that gave them:

| melting point [°C] | SMILES |
| --- | --- |
| 121 | O=C1SC2CCN(Cc3ccccc3Cl)CC2=C1O (configuration not stated) |
| 157 to 158 | COC1=C(C(=O)NNC(=O)Cc2ccc(F)cc2)CN(C(C)C)C1=O |
| 160 to 163 | CCOC(=O)c1cc2ccccc2[nH]c1=O |
| 140 to 142 | CCCCc1nc(NC(=N)N)sc1-c1cccc([N+](=O)[O-])c1 |
| 197 | CC(=O)NC[C@H]1CN(c2ccc(N3CCC(n4nccn4)CC3)c(F)c2)C(=O)O1 |
| 68 to 72 | COc1ccc2c(C(=O)c3ccc(OC4CCCC4N4CCCCC4)cc3)c(-c3ccc(OCCN4CCCC4)cc3)sc2c1 (configuration not stated) |
| 185 to 186 | CCOCc1nc2c(N)nc3cc(N4CCC4=O)ccc3c2n1CCCOC(C)C |
| 82 to 92 | CC(C)(C)OC(=O)N1CCN(c2cccc([N+](=O)[O-])c2)CC1 |
| 68.5 to 70 | COC(=O)Cc1ccc(OS(=O)(=O)C(F)(F)F)c(NC(C)=O)c1 |
| 96 to 108 | CCOCC(=O)N(c1c(C)c(C)cc2ccccc12)C(C)C(=O)OC (configuration not stated) |
| 175 to 180 | Cn1c(-c2ccc(C(N)=O)cc2)cc2c(N3CCCC3)nc(N3CCCC3)nc21 |
